Laboratory results: patent US20250114386A1, “COMBINATION OF A GLYCOSYLATION INHIBITOR WITH ONE CAR CELL THERAPY FOR TREATING CANCER” (OSPEDALE SAN RAFFAELE S.R.L., priority 2018, published 2025)
Entries after “also recorded” stand apart in the source; their conditions may differ.

How the values were obtained:
[1] = test system: sulfation (PAPS formation); settings: chlorate usually 10-30 mM; cited from earlier work
[2] = test system: T3M4 and PT45 pancreatic tumour cells; test: In vitro co-culture killing assay with CD44v6 CAR-T cells; assay type: cell-based
Protocol: (§1) CEA or CD44v6 CAR-T cells from healthy donors were co-cultured at 1:5, 1:10, 1:25 E:T ratios with target cells in the absence of IL-7 and IL-15. T cells transduced with an irrelevant CAR (CD19 CAR T) were used as control. After 24 h or 96 h, co-cultures were analysed by FACS using Flow-Count Fluorospheres (BeckmanCoulter) and target cell killing, expressed as Elimination Index, was calculated as follows: 1−(number of residual target cells with experimental CAR-T cells/number of residual target with irrelevant CAR-T cells). In co-culture assays combining CAR-T cells with 2DG, target cells were exposed to 4 mM 2DG for 48 h before being washed, co-cultured with experimental or irrelevant CAR-T cells and analysed as above. In these experiments, the Elimination Index of 2DG alone was calculated as follows: 1−(number of target cells cultivated in medium supplemented with 2DG/number of target cells cultivated in medium alone). Co-culture of Jurkat CAR-TPR and tumour cells was performed at 1:1 E:T ratio. As control, Jurkat CAR-TPR cells were treated with either 50 ng/mL of phorbol myristate acetate (PMA) or 1 g/mL of Ionomycin or a combination of the two. Upregulation of fluorescence was assessed after 24 hours

[3] = test system: T3M4 pancreatic tumour cells; test: PHA-L staining of surface N-glycosylation after 2DG treatment; assay type: cell-based
Protocol: (§2) For dose assessment, tumour cells were exposed to 2, 4, 8, 16 or 64 mM 2DG (D8375, Sigma-Aldrich) and, after 48 h, absolute cell numbers and percentages of necrotic and proliferating cells were determined by FACS using Flow-Count Fluorospheres (BeckmanCoulter), 7-AAD and CFSE, respectively. For pharmacokinetic studies, tumour cells were treated with 4 mM 2DG and surface N-glycosylation was assessed by PHA-L staining at different time points from treatment or from wash-out to assess the kinetic of de-glycosylation and glycosylation, respectively. For safety studies, buffy coat cells were treated with 4 mM 2DG for 18 hours in the presence of IL-2 (100 IU/mL; Chiron), IL-21 (10 ng/ml; Peprotech) and IL-15 (5 ng/mL; Peprotech) before assessment of the glyco-phenotype by PHA-L staining and of cell viability by 7aad/AnnexinV staining.
(§3) The inventors used mAbs specific for human CD44v6 (e-Bioscience), CD3, CD45, NGFR, LAG3 (BD Bioscience), HLA-DR, PD1, TIM3, (Biolegend), CD57 (Miltenyi Biotec). To determine cell vitality, 7-Aminoactinomicin D (7-AAD), AnnexinV or DAPI reagents were used. For LV transduced tumour cells, GFP expression was analysed by direct fluorescence. Samples were run through a fluorescence-activated cell sorting (FACS) Canto flow cytometer (BD Biosciences) and data were analysed with the FlowJo software (Tree Star, Inc.). For branched N-glycans expression analysis, cells were incubated with biotinylated Phaseolus vulgaris Leukoagglutinin (PHA-L; Caderlane) for 1 hour according to manufacturer's instructions, washed and incubated with PE-conjugated streptavidin and analysed by flow cytometry.

[4] = test system: T3M4 pancreatic tumour cells; test: Western blot / biotin-enrichment assay of protein de-glycosylation; assay type: cell-based
Protocol: […] De-glycosylation was assessed as molecular weight shift. For selective cell membrane protein analysis, biotinilation assay was performed according to manufacturer instructions (Thermo Scientific). Treatment of cell lysates with PNGase F (NEB, P0704) was performed as recommended by the manufacturer's instructions.

[5] = test system: T3M4 pancreatic tumour cells; test: Lactate production assay (glycolysis); assay type: cell-based; settings: low doses of 2DG, 48 h
Protocol: Lactate production was assessed after 48 hours of 2DG treatment at the doses of 2, 4, 8, 16 or 64 mM 2DG using the Lactate-Glo assay (Promega) according to the manufacturer's instructions.

[6] = test system: T3M4 pancreatic tumour cells; test: Tumour cell survival (7-AAD) and proliferation (CFSE) after 2DG; assay type: cell-based; settings: low doses of 2DG (4 mM, 48 hours)
Protocol: as §2

[7] = test system: healthy peripheral blood mononuclear cells (PBMCs); test: Safety study on buffy coat cells (PHA-L staining, 7aad/AnnexinV); assay type: cell-based; settings: 4 mM 2DG, 18 hours
Protocol: as §2

[8] = test system: human primary keratinocytes; test: Primary keratinocytes: western blot and co-culture with CD44v6 CAR-T cells; assay type: cell-based
Protocol: as §1, with “As control, Jurkat CAR-TPR cells were treated with either 50 ng/mL of phorbol myristate acetate (PMA) or 1 g/mL of Ionomycin or a combination of the two.” left out
Tumour cells or healthy primary keratinocytes were treated with either medium alone or supplemented with 4 mM 2DG for 48 h, lysed and subjected to SDS polyacrylamide gel electrophoresys. De-glycosylation was assessed as molecular weight shift. […]

[9] = test system: T3M4 pancreatic adenocarcinoma xenograft; test: In vivo efficacy, pancreatic adenocarcinoma xenograft mouse model; parameters: species or system NSG mice
Protocol: All experiments were approved by the Institutional Animal Care and Use Committee (IACUC) of San Raffaele University Hospital and Scientific Institute and by the Italian Governmental Health Institute (Rome, Italy). NSG mice (NOD.Cg-Prkdcscid Il2rgtm1Wj1) were obtained from the Jackson Laboratories and kept in a specific-pathogen-free (SPF) facility within individually ventilated cages. […] At day […] and 7 from tumour engraftment, when the tumour burden was high, mice were injected intraperitoneally (i.p.) with 500 mg/kg 2DG. At day 7 mice were infused intravenously (i.v.) with 5×10^5 of either CD44v6 or CD19 CAR T cells as control. In another set of experiments, mice were treated with 500 mg/kg 2DG at day 2 and 3 and received 10×10^5 of either CD44v6 or CD19 CAR T cells at day 3, when the tumour burden was low. Tumour growth was monitored by bioluminescence assay using the QUANTI-Luc detection reagent (InvivoGen) and expressed as relative light units (RLUs), according to the manufacturer instructions. Mice were sacrificed when RLUs were >10^6.

[10] = test system: PT45, BxPC3 and T3M4 pancreatic tumour cells; test: In vitro co-culture killing assay with CEA CAR-T cells; assay type: cell-based
Protocol: as §1

[11] = test system: 5637, H1975 and PC9 cells; test: In vitro co-culture killing assay, other tumour types; assay type: cell-based; settings: 4 mM 2DG 48 hours before co-culture
Protocol: as §1

[12] = test system: T3M4 pancreatic tumour cells; test: Surface expression of beta-1 integrin and CD44v6 by FACS; assay type: cell-based; settings: 4 mM 2DG, 48 hours
Protocol: as §3

[13] = 2DG alone or combined with chemotherapy and radiotherapy; cited from earlier work
[14] = T3M4, tunicamycin 100 ng/ml, 48 h

[O-][Cl+2]([O-])O [chlorate]
inhibition of sulfation [1]: > 90%

tunicamycin
CD44v6 CAR-T cell activation (CD69) after tunicamycin treatment of tumour cells [2, 14]: confirmed | elimination of tumour cells by CD44v6 CAR-T cells after tunicamycin treatment [2, 14]: confirmed

O=CC[C@@H](O)[C@H](O)[C@H](O)CO [2DG, 2-Deoxy-D-glucose]
duration of de-glycosylation after washing out 2DG ([3]; 4 mM 2DG up to 48 hours, then wash-out): 24 h | inhibition of N-glycosylation (binding to PHA-L) ([3]; 4 mM 2DG, 48 hours): reduced binding to PHA-L | time at which de-glycosylation is detectable ([3]; 4 mM 2DG, PHA-L staining): ≤ 5 h | inhibition of N-glycosylation (western blot, beta-1 integrin) ([4]; 2DG 4 mM or 16 mM, 48 hours, total cell lysates): molecular-weight shift of beta-1 integrin | de-glycosylated forms of beta-1 integrin and CD44v6 among surface proteins ([4]; biotin-enrichment western blot): clearly detected among surface proteins | inhibition of glycolysis (lactate production) [5]: unable to inhibit glycolysis | tumour cell proliferation (CFSE dilution) [6]: no impact | tumour cell viability (7AADpos cells) [6]: no impact on tumour cell viability | nature of the combined effect of 2DG and CD44v6 CAR-T cells ([2]; PT45 and T3M4): synergic | individual antitumor activity of 2DG alone ([2]; PT45 and T3M4, 4 mM 2DG 48 h): lacking | elimination of tumour cells by CD44v6 CAR-T cells after 2DG pre-treatment ([2]; PT45 and T3M4, 4 mM 2DG 48 h before co-culture): significantly increasing their elimination | PBMCs glycosylation (PHA-L staining) [7]: failed to interfere with PBMCs glycosylation | viability of CD3+ T cells, CD19+ B cells, CD14+ monocytes and CD15+ granulocytes [7]: did not impact on the viability | increase of keratinocyte elimination by CD44v6 CAR-T cells ([8]; 2DG 48 hours before co-culture): failed | keratinocyte glycosylation ([8]; 2DG 48 hours, same dose as for tumour cells): failed to inhibit keratinocyte glycosylation | frequency of tumour-infiltrating CD44v6 CAR-T cells expressing exhaustion and senescence markers ([9]; at sacrifice, mice that received 2DG vs not): significantly lower frequency of cells expressing exhaustion and senescence markers | antitumor effect of 2DG alone ([9]; high tumor burden): unable to mediate any antitumor effect alone | less tumor with 2DG in mice receiving CAR-T cells ([9]; high tumor burden, at 7d, p<0,05): 5 fold | antitumor benefit of 2DG in mice receiving CD44v6 CAR-T cells ([9]; high tumour burden (HTB) setting, 500 mg/kg 2DG i.p., low CAR-T cell dose): significantly benefited from 2DG administration | cytokine release (IFNγ) by CEA CAR-T cells with 2DG-treated tumour cells ([10]; 24 hours after stimulation): increased | recognition of CEAneg tumour cells by CEA CAR-T cells after 2DG pre-treatment ([10]; CEAneg PT45, 4 mM 2DG 48 hours): did not increase recognition | elimination of CEApos tumour cells by CEA CAR-T cells after 2DG pre-treatment ([10]; CEApos BxPC3 and T3M4, 4 mM 2DG 48 hours): significantly improved the elimination | CEA CAR-T cell activation (CD69, Jurkat TPR) with 2DG-treated tumour cells ([10]; T3M4, 4 mM 2DG): increased CAR-T cell activation | elimination of highly glycosylated tumours by CD44v6 CAR-T cells after 2DG [11]: drastically increase the elimination | surface expression levels of beta-1 integrin and CD44v6 [12]: maintained | safety and tolerability in patients [13]: safe and well tolerated; also recorded: good tolerability
